Measured values from patent US20040229872A1, “Substituted cyclohexane-1,4-diamine compounds with anti-diarrhea and peripheral analgesic activity” (Gruenenthal GmbH, priority 2001, published 2004).

Experiments:
[1] = system: mice; assay: animal or person; conditions: Mus musculus, iv, read-out: Analgesia, tail flick test in mice, i.v., ED50
[2] = system: mice; conditions: mouse, in vivo
[3] = system: mice; conditions: mouse, in vivo, po
[4] = system: mice; assay: PGE2-induced diarrhea in mice; assay type: in vivo

Structure (SMILES): CN(C)C(=O)C(CCN1CCC(O)(c2ccc(Cl)cc2)CC1)(c1ccccc1)c1ccccc1 [Loperamide, loperamide]
- ED50 [1]: > 0.562 mg/kg
- action on the central nervous system (in words) [2]: always has a measurable action
- tail flick test in mice, i.v.: toxic side effects from ([2]; iv): toxic from 0.464
- Carbon passage, mice, ED50 p.o. [3]: ED50 p.o. = ˜15 μM
- ED50 ([4]; Mus musculus, iv, read-out: ED50 Value (mg/kg) i.v.): 0.41 mg/kg
- PGE2-diarrhea, mice, ED50 i.v. ([4]; mouse, in vivo, iv): ED50 i.v. = 0.41 μM
- PGE2-diarrhea, mice, ED50 p.o. ([4]; mouse, in vivo, po): ED50 p.o. = 9.34 μM
